Here are results for 13 compounds from patent US12441695B2, “Substituted thiadiazinone dioxide and preparation method therefor, herbicidal composition, and application therefor” (Qingdao Kingagroot Chemical Compound Co., Ltd., priority 2019, dated 2025).

Molecules are shown by their SMILES.

In data set [1] the test system is monocotyledonous and dicotyledonous weeds. As to the kind of experiment: Experiment on weeding effect in post-emergence stage (weeds). The format is in vivo. Conditions: 3 weeks after application; for Amaranthus retroflexus activity level (growth control rate): fomesafen-resistant Amaranthus retroflexus. The text has this:
The activity level criteria for plant damage (i.e., growth control rate) are as follows: • Level 5: growth control rate is above 85%; • Level 4: growth control rate is greater than or equal to 60% and less than 85%; • Level 3: growth control rate is greater than or equal to 40% and less than 60%; • Level 2: growth control rate is greater than or equal to 20% and less than 40%; • Level 1: growth control rate is greater than or equal to […]; • Level 0: growth control rate is less than 5%.
(§1) The above growth control rates are fresh weight control rates.
(§2) (1) Experiment on weeding effect in post-emergence stage: monocotyledonous and dicotyledonous weed seeds and major crop seeds (wheat, corn, rice, soybean, cotton, oilseed rape, millet, sorghum) were placed in plastic pots filled with soil, then covered with 0.5-2 cm of soil, allowed to grow in a good greenhouse environment. After 2-3 weeks of sowing, the test plants were treated. The tested compounds of the present invention were respectively dissolved in acetone, then added with Tween 80, diluted with a certain amount of water to obtain a solution with a certain concentration, and sprayed with a spray tower onto the plants. After the application, the plants were cultured for 3 weeks in the greenhouse, and then the experimental results of the weeding were listed in Table 2.

The subject of data set [2] is major crops (wheat, corn, rice, soybean, cotton, oilseed rape, millet, sorghum). As to the kind of experiment: Experiment on weeding effect in post-emergence stage (crops). As to conditions: 600 g/ha active ingredient plus water 450 kg/ha, 3 weeks after application; for corn plant damage level (growth control rate): crop corn; for rice plant damage level (growth control rate): crop rice; for soybean plant damage level (growth control rate): crop soybean. Type of data set: in vivo. As for the experimental part:
as §1
as §2, with “plants.” for “plants. After the application, the plants were cultured for 3 weeks in the greenhouse, and then the experimental results of the weeding were listed in Table 2.”

Where [3] appears, read: 600 g/ha active ingredient plus water 450 kg/ha, fresh weight control rate.

Consider `CC(C)OC(=O)OC(C)N1c2ccc(F)cc2C(=O)N(C(C)C)S1(=O)=O` (racemic) [Compound 193], for which the “Amaranthus retroflexus activity level (growth control rate)” value (“Amaranthus retroflexus activity level” below) in data set [1] (setting [3]) is 4 (Level 4: growth control rate is greater than or equal to 60% and less than 85%). Moreover, in data set [2], the “corn plant damage level (growth control rate)” value (shortened to “corn plant damage level”) is on record as 0 (Level 0: growth control rate is less than 5%), the “rice plant damage level (growth control rate)” value (“rice plant damage level” below) was 0 (Level 0: growth control rate is less than 5%) and the “soybean plant damage level (growth control rate)” value (from here on “soybean plant damage level”) is 0 (Level 0: growth control rate is less than 5%).
Turning to `CC(C)N1C(=O)c2cc(F)ccc2N(C(C)OC(=O)OC2CCCCC2)S1(=O)=O` (racemic) [Compound 194], the “Amaranthus retroflexus activity level” value in data set [1] (setting [3]) was 4 (Level 4: growth control rate is greater than or equal to 60% and less than 85%). Besides, in data set [2], the “corn plant damage level” value was 0 (Level 0: growth control rate is less than 5%), the “rice plant damage level” value is on record as 0 (Level 0: growth control rate is less than 5%) and the “soybean plant damage level” value is recorded as 0 (Level 0: growth control rate is less than 5%).
Consider `CC(C)OC(=O)OC(C)N1c2c(F)cc(F)cc2C(=O)N(C(C)C)S1(=O)=O` (racemic) [Compound 226], for which, in data set [1] (setting [3]), the “Amaranthus retroflexus activity level” value is 5 (Level 5: growth control rate is above 85%). In data set [2], the “corn plant damage level” value was 1 (Level 1: growth control rate is greater than or equal to 500 and less than 200%); the “rice plant damage level” value is 0 (Level 0: growth control rate is less than 5%).
Consider `CC(C)N1C(=O)c2cc(F)cc(F)c2N(C(C)OC(=O)OC2CCCCC2)S1(=O)=O` (racemic) [Compound 227], for which the “Amaranthus retroflexus activity level” value in data set [1] (setting [3]) was 3 (Level 3: growth control rate is greater than or equal to 40% and less than 60%). Further, in data set [2], the “corn plant damage level” value is on record as 0 (Level 0: growth control rate is less than 5%); the “rice plant damage level” value was 1 (Level 1: growth control rate is greater than or equal to 500 and less than 200%); the “soybean plant damage level” value is 1 (Level 1: growth control rate is greater than or equal to 500 and less than 200%).
Regarding `CC(C)N1C(=O)c2cc(Cl)ccc2NS1(=O)=O` [A, reference compound], in data set [1] (setting [3]), the “Amaranthus retroflexus activity level” value is 1 (Level 1: growth control rate is greater than or equal to 500 and less than 200%); the “Digitaria sanguinalis activity level (growth control rate)” value (“Digitaria sanguinalis activity level” for short) is 1 (Level 1: growth control rate is greater than or equal to 500 and less than 200%); the “Echinochloa crus-galli activity level (growth control rate)” value (“Echinochloa crus-galli activity level” for short) is 1 (Level 1: growth control rate is greater than or equal to 500 and less than 200%); the “Setaria viridis activity level (growth control rate)” value (“Setaria viridis activity level” below) is 2 (Level 2: growth control rate is greater than or equal to 20% and less than 40%). In addition, in data set [2], the “corn plant damage level” value is reported as 0 (Level 0: growth control rate is less than 5%), the “rice plant damage level” value is 0 (Level 0: growth control rate is less than 5%) and the “soybean plant damage level” value is on record as 0 (Level 0: growth control rate is less than 5%).
For the compound `CC(C)N1C(=O)c2cc(Br)ccc2NS1(=O)=O` [B, reference compound], in data set [1] (setting [3]), the “Amaranthus retroflexus activity level” value was 1 (Level 1: growth control rate is greater than or equal to 500 and less than 200%); the “Digitaria sanguinalis activity level” value is on record as 0 (Level 0: growth control rate is less than 5%); the “Echinochloa crus-galli activity level” value is reported as 0 (Level 0: growth control rate is less than 5%); the “Setaria viridis activity level” value is given as 0 (Level 0: growth control rate is less than 5%). In data set [2], the “corn plant damage level” value is reported as 0 (Level 0: growth control rate is less than 5%), the “rice plant damage level” value was 0 (Level 0: growth control rate is less than 5%) and the “soybean plant damage level” value was 0 (Level 0: growth control rate is less than 5%).
On to `CC(C)N1C(=O)c2cc(I)ccc2NS1(=O)=O` [C, reference compound], for which, in data set [1] (setting [3]), the “Amaranthus retroflexus activity level” value is 0 (Level 0: growth control rate is less than 5%), the “Digitaria sanguinalis activity level” value was 0 (Level 0: growth control rate is less than 5%), the “Echinochloa crus-galli activity level” value is 0 (Level 0: growth control rate is less than 5%) and the “Setaria viridis activity level” value was 0 (Level 0: growth control rate is less than 5%). In data set [2], the “corn plant damage level” value is 0 (Level 0: growth control rate is less than 5%), the “rice plant damage level” value is 0 (Level 0: growth control rate is less than 5%) and the “soybean plant damage level” value is 0 (Level 0: growth control rate is less than 5%).
For the compound `CC(C)N1C(=O)c2cc(F)ccc2NS1(=O)=O` [Compound 2], in data set [1] (setting [3]), the “Amaranthus retroflexus activity level” value is on record as 5 (Level 5: growth control rate is above 85%); the “Digitaria sanguinalis activity level” value is 3 (Level 3: growth control rate is greater than or equal to 40% and less than 60%); the “Echinochloa crus-galli activity level” value is 4 (Level 4: growth control rate is greater than or equal to 60% and less than 85%); the “Setaria viridis activity level” value was 4 (Level 4: growth control rate is greater than or equal to 60% and less than 85%). For the same compound, in data set [2], the “corn plant damage level” value is 1 (Level 1: growth control rate is greater than or equal to 500 and less than 200%); the “rice plant damage level” value was 0 (Level 0: growth control rate is less than 5%); the “soybean plant damage level” value is 1 (Level 1: growth control rate is greater than or equal to 500 and less than 200%).
As to `CC(C)N1C(=O)c2cc(F)ccc2N(C)S1(=O)=O` [Compound 49], in data set [1] (setting [3]), the “Amaranthus retroflexus activity level” value was 5 (Level 5: growth control rate is above 85%); the “Echinochloa crus-galli activity level” value is 3 (Level 3: growth control rate is greater than or equal to 40% and less than 60%); the “Setaria viridis activity level” value is 3 (Level 3: growth control rate is greater than or equal to 40% and less than 60%). In addition, in data set [2], the “corn plant damage level” value was 0 (Level 0: growth control rate is less than 5%), the “rice plant damage level” value is reported as 0 (Level 0: growth control rate is less than 5%) and the “soybean plant damage level” value is reported as 0 (Level 0: growth control rate is less than 5%).
`C#CCN1c2ccc(F)cc2C(=O)N(C(C)C)S1(=O)=O` [Compound 51]: in data set [1] (setting [3]), the “Amaranthus retroflexus activity level” value was 5 (Level 5: growth control rate is above 85%); the “Echinochloa crus-galli activity level” value is 3 (Level 3: growth control rate is greater than or equal to 40% and less than 60%); the “Setaria viridis activity level” value was 3 (Level 3: growth control rate is greater than or equal to 40% and less than 60%). Further, in data set [2], the “corn plant damage level” value is given as 0 (Level 0: growth control rate is less than 5%), the “rice plant damage level” value is 0 (Level 0: growth control rate is less than 5%) and the “soybean plant damage level” value was 0 (Level 0: growth control rate is less than 5%).
Turning to `CC(C)N1C(=O)c2cc(F)cc(F)c2N(C(=O)OCCCCl)S1(=O)=O` [Compound 221], in data set [1] (setting [3]), the “Amaranthus retroflexus activity level” value was 5 (Level 5: growth control rate is above 85%); the “Digitaria sanguinalis activity level” value is 5 (Level 5: growth control rate is above 85%); the “Echinochloa crus-galli activity level” value was 4 (Level 4: growth control rate is greater than or equal to 60% and less than 85%); the “Setaria viridis activity level” value is given as 5 (Level 5: growth control rate is above 85%).
Take `CCS(=O)(=O)N1c2c(F)cc(F)cc2C(=O)N(C(C)C)S1(=O)=O` [Compound 228]: in data set [1] (setting [3]), the “Amaranthus retroflexus activity level” value is reported as 5 (Level 5: growth control rate is above 85%); the “Digitaria sanguinalis activity level” value is 3 (Level 3: growth control rate is greater than or equal to 40% and less than 60%); the “Echinochloa crus-galli activity level” value is 3 (Level 3: growth control rate is greater than or equal to 40% and less than 60%); the “Setaria viridis activity level” value is 5 (Level 5: growth control rate is above 85%).
With `CS(=O)(=O)NC(=O)c1cc(Oc2ccc(C(F)(F)F)cc2Cl)ccc1[N+](=O)[O-]` [fomesafen, reference compound], in data set [1] (300 g/ha), the “Digitaria sanguinalis activity level” value was 0 (Level 0: growth control rate is less than 5%); the “Echinochloa crus-galli activity level” value is 1 (Level 1: growth control rate is greater than or equal to 500 and less than 200%); the “Setaria viridis activity level” value is 2 (Level 2: growth control rate is greater than or equal to 20% and less than 40%); the “Amaranthus retroflexus activity level” value was 1 (Level 1: growth control rate is greater than or equal to 500 and less than 200%).
